Experiment [1] can be described thus: cells. The experiment is classed as functional, cell-based.
The target of experiment [2] is T1, Exodeoxyribonuclease V (Escherichia coli (strain K12), UniProt P04993+P07648+P08394).
T1 sequence (P04993 whole entry): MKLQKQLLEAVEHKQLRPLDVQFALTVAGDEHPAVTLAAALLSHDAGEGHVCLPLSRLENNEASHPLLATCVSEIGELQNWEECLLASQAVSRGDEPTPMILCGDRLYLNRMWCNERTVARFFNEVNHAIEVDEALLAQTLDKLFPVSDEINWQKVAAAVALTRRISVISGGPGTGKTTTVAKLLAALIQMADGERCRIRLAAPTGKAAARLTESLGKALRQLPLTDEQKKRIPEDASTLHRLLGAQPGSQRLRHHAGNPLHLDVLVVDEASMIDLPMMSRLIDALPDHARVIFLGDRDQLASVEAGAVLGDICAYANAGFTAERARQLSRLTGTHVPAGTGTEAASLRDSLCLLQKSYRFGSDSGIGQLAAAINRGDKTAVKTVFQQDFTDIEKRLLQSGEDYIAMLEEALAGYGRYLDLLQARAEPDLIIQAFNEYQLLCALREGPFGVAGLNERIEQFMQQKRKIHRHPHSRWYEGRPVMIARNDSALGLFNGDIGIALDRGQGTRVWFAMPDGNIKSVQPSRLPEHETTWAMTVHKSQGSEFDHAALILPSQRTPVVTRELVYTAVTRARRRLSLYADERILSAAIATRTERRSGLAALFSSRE
T1 sequence (P07648 whole entry): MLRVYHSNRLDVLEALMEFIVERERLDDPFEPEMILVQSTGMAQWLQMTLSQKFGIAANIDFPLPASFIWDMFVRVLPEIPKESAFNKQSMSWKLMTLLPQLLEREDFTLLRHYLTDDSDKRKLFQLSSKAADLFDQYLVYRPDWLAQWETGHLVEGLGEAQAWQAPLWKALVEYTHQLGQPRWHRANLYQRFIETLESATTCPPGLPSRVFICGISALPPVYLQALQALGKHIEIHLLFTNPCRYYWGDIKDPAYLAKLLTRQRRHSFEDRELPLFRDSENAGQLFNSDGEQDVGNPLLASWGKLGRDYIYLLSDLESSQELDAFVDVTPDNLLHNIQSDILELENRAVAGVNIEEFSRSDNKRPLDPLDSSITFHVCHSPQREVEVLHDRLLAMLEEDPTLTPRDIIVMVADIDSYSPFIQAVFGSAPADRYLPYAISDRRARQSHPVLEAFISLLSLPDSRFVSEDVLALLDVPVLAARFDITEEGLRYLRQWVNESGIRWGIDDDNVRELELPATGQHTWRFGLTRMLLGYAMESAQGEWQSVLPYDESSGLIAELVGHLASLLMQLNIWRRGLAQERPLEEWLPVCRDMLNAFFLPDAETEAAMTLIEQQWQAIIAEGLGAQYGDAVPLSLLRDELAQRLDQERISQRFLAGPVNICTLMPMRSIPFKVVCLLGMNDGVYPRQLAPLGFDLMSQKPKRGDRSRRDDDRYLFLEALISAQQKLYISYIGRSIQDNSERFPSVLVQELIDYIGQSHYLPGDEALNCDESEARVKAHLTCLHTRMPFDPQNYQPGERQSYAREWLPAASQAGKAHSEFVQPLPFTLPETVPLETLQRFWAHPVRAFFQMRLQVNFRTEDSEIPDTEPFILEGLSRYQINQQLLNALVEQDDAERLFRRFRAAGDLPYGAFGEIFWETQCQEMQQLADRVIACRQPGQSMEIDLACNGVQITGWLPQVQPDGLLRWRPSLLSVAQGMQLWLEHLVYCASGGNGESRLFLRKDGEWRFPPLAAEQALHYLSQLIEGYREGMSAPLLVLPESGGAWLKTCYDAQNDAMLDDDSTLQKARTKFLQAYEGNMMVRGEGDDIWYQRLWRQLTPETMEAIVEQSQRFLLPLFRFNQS
T1 sequence (P08394 whole entry): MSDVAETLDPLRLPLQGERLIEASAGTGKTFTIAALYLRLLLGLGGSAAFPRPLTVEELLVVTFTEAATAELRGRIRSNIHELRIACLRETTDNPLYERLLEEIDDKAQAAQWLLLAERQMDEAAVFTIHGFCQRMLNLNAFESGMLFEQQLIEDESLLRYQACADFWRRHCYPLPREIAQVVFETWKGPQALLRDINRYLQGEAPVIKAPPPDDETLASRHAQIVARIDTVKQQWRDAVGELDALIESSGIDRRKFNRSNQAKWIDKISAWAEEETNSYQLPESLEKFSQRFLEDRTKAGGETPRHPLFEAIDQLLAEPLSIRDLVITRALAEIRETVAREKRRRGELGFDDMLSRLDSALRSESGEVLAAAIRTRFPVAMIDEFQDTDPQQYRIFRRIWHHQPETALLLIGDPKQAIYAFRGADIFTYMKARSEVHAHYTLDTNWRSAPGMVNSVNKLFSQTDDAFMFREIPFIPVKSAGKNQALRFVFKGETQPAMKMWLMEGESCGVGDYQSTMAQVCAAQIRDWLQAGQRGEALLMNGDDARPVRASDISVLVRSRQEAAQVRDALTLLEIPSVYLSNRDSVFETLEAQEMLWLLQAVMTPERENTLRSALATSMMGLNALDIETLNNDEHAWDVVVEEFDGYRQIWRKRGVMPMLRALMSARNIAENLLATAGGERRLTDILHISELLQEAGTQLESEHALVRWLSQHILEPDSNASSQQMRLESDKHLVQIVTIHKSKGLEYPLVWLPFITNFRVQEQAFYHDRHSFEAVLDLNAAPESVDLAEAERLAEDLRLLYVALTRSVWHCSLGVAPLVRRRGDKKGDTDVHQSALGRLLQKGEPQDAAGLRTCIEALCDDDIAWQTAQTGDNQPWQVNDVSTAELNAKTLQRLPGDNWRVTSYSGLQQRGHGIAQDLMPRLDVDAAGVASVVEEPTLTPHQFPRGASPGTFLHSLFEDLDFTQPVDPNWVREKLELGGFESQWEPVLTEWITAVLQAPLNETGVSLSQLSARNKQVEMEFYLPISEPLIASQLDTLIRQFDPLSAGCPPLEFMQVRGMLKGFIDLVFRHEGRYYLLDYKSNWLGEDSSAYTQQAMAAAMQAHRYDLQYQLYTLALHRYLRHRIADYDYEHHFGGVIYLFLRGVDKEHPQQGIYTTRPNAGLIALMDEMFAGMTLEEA
Briefly: RecBCD inhibition via phage-restricted bacterial growth – absorbance, V66 E. coli, mutant T4 phage, counter-screen for AddAB inhibitor project, dose response (AID 492957). The experiment is classed as functional, cell-based, Escherichia coli str. K-12 substr. MG1655.

In experiment [3] the target is ATP-dependent molecular chaperone HSP82 (Candida albicans (strain WO-1) (Yeast), UniProt C4YTQ8). The experiment is described as follows: steroid-induced GRE reporter decrease in yeast – S. cerevisiae, luminescence, Hsp90 inhibitor project, dose response (AID 2400).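 Also: beta-galactosidase luminescence from glucocorticoid response element reporter as proxy for Hsp90 function; inhibitor potency where signal loss means Hsp90 inhibition.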 It counts as functional, cell-based.
Sequence of ATP-dependent molecular chaperone HSP82 (C4YTQ8 whole entry): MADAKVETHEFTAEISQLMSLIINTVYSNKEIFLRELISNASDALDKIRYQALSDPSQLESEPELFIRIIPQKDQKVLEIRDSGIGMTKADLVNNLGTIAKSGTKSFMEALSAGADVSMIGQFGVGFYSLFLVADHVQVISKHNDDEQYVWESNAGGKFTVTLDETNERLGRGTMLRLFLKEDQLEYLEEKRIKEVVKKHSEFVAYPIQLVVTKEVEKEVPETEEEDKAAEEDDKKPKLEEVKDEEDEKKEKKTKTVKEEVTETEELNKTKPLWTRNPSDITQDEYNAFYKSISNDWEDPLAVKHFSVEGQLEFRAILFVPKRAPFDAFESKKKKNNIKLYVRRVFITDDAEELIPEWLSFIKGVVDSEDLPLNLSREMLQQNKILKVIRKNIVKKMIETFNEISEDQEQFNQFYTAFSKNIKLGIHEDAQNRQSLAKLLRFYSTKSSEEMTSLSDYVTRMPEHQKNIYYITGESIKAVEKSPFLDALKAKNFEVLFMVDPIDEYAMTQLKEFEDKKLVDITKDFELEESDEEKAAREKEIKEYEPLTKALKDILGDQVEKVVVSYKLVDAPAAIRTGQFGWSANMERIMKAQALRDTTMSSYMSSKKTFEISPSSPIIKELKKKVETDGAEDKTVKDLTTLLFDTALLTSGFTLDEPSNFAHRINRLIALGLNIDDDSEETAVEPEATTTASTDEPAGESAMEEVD

The record followed here is ChEMBL document CHEMBL1201862, “PubChem BioAssay data set” (2004).

Activity calls are given as the source filed them. Rule as the data show it, for most assays here: actives have a measured EC50 and inactives only a lower limit. Some results are limits rather than exact numbers.

In general, EC50 refers to the concentration needed to bring the measured effect to its halfway point. For orientation: IC50 means the concentration that gives 50% inhibition. Regarding `Oc1c(C(c2ccccc2Cl)N2CCCC2)ccc2cccnc12` (stereo unspecified), the concentration for a half-maximal effect (EC50) was 27.4 µM (active) in experiment [1] and > 160 µM (inactive) in experiment [3]. Further, the IC50 in experiment [2] was 102 µM (inactive).
For the molecule `[O-][N+]1=c2ccc(Nc3ccccc3)cc2=NC12CCCCC2`, the EC50 in experiment [3] was > 150 µM (inactive).
Turning to `COc1cccc(/C=N/Nc2ccc([N+](=O)[O-])cn2)c1O`, the EC50 in experiment [1] was > 350 µM (not active). In addition, the IC50 in experiment [2] is > 118 µM (inactive).
